Columns and labels:
[1] = test system: thyroid cells derived from CD2/neo^r transgenic rats; test: Survival of thyroid cells from CD2/neo^r transgenic rats with drugs; format: cell-based; settings: CD2/neo^r rat cells, drugs added at day 2, geneticin 400 μg/ml, ACG 10 μg/ml
Experimental: (§1) Thyroid cultures derived from the thyroid gland of adult CD2/neo^r, TG/TK/neo^r and control animals were produced by routine methods (Freshney, 1987). Twenty-four hours after plating, geneticin (400 μg/ml) was added to cultures originating from both types of transgenic and the control rats, and replaced every three days with fresh medium. When required, cells were subcultured (1:2) to prevent their becoming confluent. Cell counts were made manually in 20 fields chosen randomly, and the values at each time point, after allowing for changes due to subculturing, were aggregated (Table 3). […] Ten days later, cell counts were again made of 20 fields chosen at random. […] The results were as expected in view of the specific and non-specific expression of the positive and negative selection markers, in the TG/TK/neo^r and CD2/neo^r transgenics, respectively.
(§2) Drugs were added at day 2 in culture. Values are related to the number of cells found in control cultures without drug additions at various times after plating, and allow for dilutions resulting from passaging. Figures are the means of three separate determinations, the standard errors all being less than 15% of the mean.

[2] = test system: lung fibroblast cells derived from control rats; test: Survival of lung fibroblast cells from control rats with drugs; format: cell-based, rat; settings: control rat cells, drugs added at day 2, geneticin 400 μg/ml, 5FC 100 μg/ml
Experimental: (§3) Fibroblast cultures derived from lung of adult CD2/neo^r, TG/TK/neo^r and control animals were produced and expanded by routine methods (Freshney (1987), Alan R. Liss, New York). Twenty-four hours after plating, geneticin (400 μg/ml) was added to cultures originating from both types of transgenic rats and from control rats, and replaced every three days with fresh medium. When required, cells were subcultured (1:3) to prevent them becoming confluent, again by basic culture methods (Freshney 1987). Cell counts were made manually in 20 fields chosen randomly and the values at each time point, after allowing for changes due to subculturing, were aggregated. […] In the absence of added geneticin, no change in cell survival from either of the transgenic animals was observed.
(§4) The effects of 5-fluorocytosine (5FC) were also determined. 5-fluorocytosine at a concentration of 100 μg/ml had no effect on fibroblast cells derived from control animals or from the TG/TK/neo^r transgenic. In the cells derived from the CD2/neo^r transgenic animal, however, 94% of the originally-plated cells died, or were non-functional (as determined by their failure to exclude trypan blue) after 10 days culture in the presence of 5FC (Table 2).
as §2, with “allowing” for “allow”

[3] = test system: lung fibroblast cells derived from CD2/neo^r transgenic rats; test: Survival of lung fibroblast cells from CD2/neo^r transgenic rats with drugs; format: cell-based, rat; settings: CD2/neo^r rat cells, drugs added at day 2, geneticin 400 μg/ml, 5FC 100 μg/ml
Experimental: as §3, §4
as §2, with “allowing” for “allow”

[4] = test system: thyroid cells derived from TG/TK/neo^r transgenic rats; test: Survival of thyroid cells from TG/TK/neo^r transgenic rats with drugs; format: cell-based, rat; settings: TG/TK/neo^r rat cells, drugs added at day 2, geneticin 400 μg/ml, ACG 10 μg/ml
Experimental: as §1, §2

[5] = test system: thyroid cells derived from control rats; test: Survival of thyroid cells from control rats with drugs; format: cell-based, rat; settings: control rat cells, drugs added at day 2, geneticin 400 μg/ml, ACG 10 μg/ml
Experimental: as §1, §2

[6] = test system: spinal cord cells derived from the CD2-neo^r transgenic rat; test: Survival and development of spinal cord cells from the CD2-neo^r transgenic rat under geneticin; format: cell-based; settings: geneticin 1 mg/ml; 60 days in vitro
Experimental: Cultures of spinal cord cells derived from the CD2-neo^r transgenic rat were grown in small flasks, using previously established methods (Foster et al., (1990) Eur. J. Neurosci. 3, 32-39). At the beginning of the experimental period, in the region of 100 yeast spores, and unknown amounts of other common laboratory microbiological contaminants, were introduced into the flask. At the same time geneticin (1 mg/ml) was added. Thereafter, all manipulations of the medium and additions to the flask were conducted outside the sterile environment of the laminar flow cabinet.

[7] = test system: lung fibroblast cells derived from TG/TK/neo^r transgenic rats; test: Survival of lung fibroblast cells from TG/TK/neo^r transgenic rats with drugs; format: cell-based, rat; settings: TG/TK/neo^r rat cells, drugs added at day 2, geneticin 400 μg/ml, 5FC 100 μg/ml
Experimental: as §3, §4
as §2, with “allowing” for “allow”

CN[C@@H]1[C@@H](O)[C@@H](O[C@@H]2[C@@H](O)[C@H](O[C@H]3O[C@H]([C@@H](C)O)[C@@H](O)[C@H](O)[C@H]3N)[C@@H](N)C[C@H]2N)OC[C@]1(C)O [geneticin]
Survival of thyroid cells (related to number of cells in control cultures without drug) ([1]; day 1 in culture): 91
Survival of thyroid cells (related to number of cells in control cultures without drug) ([1]; day 3 in culture): 94
Survival of thyroid cells (related to number of cells in control cultures without drug) ([1]; day 5 in culture): 91
Survival of thyroid cells (related to number of cells in control cultures without drug) ([1]; day 7 in culture): 93
Survival of thyroid cells (related to number of cells in control cultures without drug) ([1]; day 9 in culture): 107
Survival of thyroid cells (related to number of cells in control cultures without drug) ([1]; day 11 in culture): 105
Survival of lung fibroblast cells (related to number of cells in control cultures without drug) ([2]; day 1 in culture): 99
Survival of lung fibroblast cells (related to number of cells in control cultures without drug) ([2]; day 3 in culture): 101
Survival of lung fibroblast cells (related to number of cells in control cultures without drug) ([2]; day 5 in culture): 85
Survival of lung fibroblast cells (related to number of cells in control cultures without drug) ([2]; day 7 in culture): 23
Survival of lung fibroblast cells (related to number of cells in control cultures without drug) ([2]; day 9 in culture): 5
Survival of lung fibroblast cells (related to number of cells in control cultures without drug) ([2]; day 11 in culture): 2
Survival of lung fibroblast cells (related to number of cells in control cultures without drug) ([3]; day 1 in culture): 91
Survival of lung fibroblast cells (related to number of cells in control cultures without drug) ([3]; day 3 in culture): 94
Survival of lung fibroblast cells (related to number of cells in control cultures without drug) ([3]; day 5 in culture): 91
Survival of lung fibroblast cells (related to number of cells in control cultures without drug) ([3]; day 7 in culture): 93
Survival of lung fibroblast cells (related to number of cells in control cultures without drug) ([3]; day 9 in culture): 107
Survival of lung fibroblast cells (related to number of cells in control cultures without drug) ([3]; day 11 in culture): 105
Survival of thyroid cells (related to number of cells in control cultures without drug) ([4]; day 1 in culture): 104
Survival of thyroid cells (related to number of cells in control cultures without drug) ([4]; day 3 in culture): 105
Survival of thyroid cells (related to number of cells in control cultures without drug) ([4]; day 5 in culture): 98
Survival of thyroid cells (related to number of cells in control cultures without drug) ([4]; day 7 in culture): 88
Survival of thyroid cells (related to number of cells in control cultures without drug) ([4]; day 9 in culture): 93
Survival of thyroid cells (related to number of cells in control cultures without drug) ([4]; day 11 in culture): 98
Survival of thyroid cells (related to number of cells in control cultures without drug) ([5]; day 1 in culture): 95
Survival of thyroid cells (related to number of cells in control cultures without drug) ([5]; day 3 in culture): 91
Survival of thyroid cells (related to number of cells in control cultures without drug) ([5]; day 5 in culture): 85
Survival of thyroid cells (related to number of cells in control cultures without drug) ([5]; day 7 in culture): 56
Survival of thyroid cells (related to number of cells in control cultures without drug) ([5]; day 9 in culture): 9
Survival of thyroid cells (related to number of cells in control cultures without drug) ([5]; day 11 in culture): 4
Survival and development of the neural cells compared to uninfected control cells grown without geneticin [6]: appeared unimpaired
Survival of lung fibroblast cells (related to number of cells in control cultures without drug) ([7]; day 1 in culture): 97
Survival of lung fibroblast cells (related to number of cells in control cultures without drug) ([7]; day 3 in culture): 105
Survival of lung fibroblast cells (related to number of cells in control cultures without drug) ([7]; day 5 in culture): 108
Survival of lung fibroblast cells (related to number of cells in control cultures without drug) ([7]; day 7 in culture): 101
Survival of lung fibroblast cells (related to number of cells in control cultures without drug) ([7]; day 9 in culture): 105
Survival of lung fibroblast cells (related to number of cells in control cultures without drug) ([7]; day 11 in culture): 111

Source: patent publication US20030110524A1, “TRANSGENIC ORGANISMS AND THEIR USES” (priority 1997, published 2003)
